Source: patent US5468734A, “Prophylactic and remedial preparation for diseases attendant on hyperglycemia, and wholesome food” (Godo Shusei Co., Ltd., priority 1992, dated 1995)

Assays:
[1] = tested on: maltase (carbohydrase derived from rabbit small intestine mucous membrane); assay: Action to inhibit the hydrolytic activity of homogenate prepared from rabbit small intestine mucous membrane: maltase inhibition; assay type: biochemical; details: for Maltase inhibition rate: substrate maltose 20 mM, pH 6.8, 37° C., 15 minutes
Description: (§1) (Action to inhibit the hydrolytic activity of homogenate prepared from rabbit small intestine mucous membrane to carbohydrate)
(§2) A native kind of white rabbits (weight: 3.0-3.5 kg) were sacrificed by exsanguination to take out their small intestines.
(§3) After freezing and thawing the small intestines thus taken out, they were homogenized in a 5 mM EDTA buffer (pH: 7.0) and subjected to centrifugation for 60 minutes at 60,000×g. Precipitate thus formed was collected and suspended again in a 10 mM potassium phosphate buffer (pH: 7.0), thereby obtaining a crude enzyme suspension.
(§4) Sucrose (20 mM) and maltose (20 mM) were used as substrates.
(§5) Each reaction mixture was formulated so as to contain 350 microliters of a 100 mM maleate buffer (pH: 6.8), 100 microliters of a substrate solution, 50 microliters of the crude enzyme suspension and 50 microliters of a test solution. Substances to be tested were separately dissolved in a maleate buffer (pH: 6.8) before use.
(§6) Respective reactions were conducted for 15 minutes at 37° C.

[2] = molecular target: T1, sucrase (carbohydrase derived from rabbit small intestine mucous membrane) (Oryctolagus cuniculus, UniProt P07768); assay: Action to inhibit the hydrolytic activity of homogenate prepared from rabbit small intestine mucous membrane: sucrase inhibition; assay type: biochemical; details: for inhibition at 250 µg/mL / inhibition at 500 µg/mL / inhibition at 1000 µg/mL / inhibition at 2000 µg/mL: 0.25 h, substrate sucrose 20 mM, pH 6.8, 37° C., 15 minutes, read-out: Sucrase inhibition rate; for inhibition at 250 µg/mL: 25 mg/dl; for inhibition at 500 µg/mL: 50 mg/dl; for inhibition at 1000 µg/mL: 100 mg/dl; for inhibition at 2000 µg/mL: 200 mg/dl
T1 construct: suspended again in a 10 mM potassium phosphate buffer (pH: 7.0), thereby obtaining a crude enzyme suspension; from tissue; host or cells: rabbit small intestine (title: mucous membrane), homogenate, 60,000×g precipitate
Description: as §1, §2, §3, §4, §5, §6

rise in blood sugar = assay: Action to depress the rise in blood sugar after sucrose loading to mice; assay type: in vivo, ICR male mice; details: for Rise in blood sugar / action to depress the rise in blood sugar due to sucrose loading (in words): sucrose 1 g/kg; for Rise in blood sugar: average ± standard error; for action to depress the rise in blood sugar due to sucrose loading (in words): orally 25, 50 and 100 mg/kg (L-arabinose, D-xylose) or 100 mg/kg (others); for action to depress the rise in blood sugar for sucrose or starch loading (in words): summary statement
Description: (Action to depress the rise in blood sugar after carbohydrate loading)
ICR male mice (weight 30-35 g) were used in proportions of 5 mice per group.
After causing the mice to fast, sucrose or starch was orally administered in a proportion of 1 g/kg to the mice of each group, and at the same time substances to be tested were orally given to mice of their corresponding groups.
Blood was collected from the retroorbital sinus of each mouse before carbohydrate loading and upon elapsed times of 30 minutes, 60 minutes and 120 minutes after the loading to determine the concentration of glucose in the blood plasma by the glucose oxidase method.

[3] = dose 100 mg/kg oral, after 30 min.
[4] = dose 100 mg/kg oral, after 60 min.
[5] = dose 100 mg/kg oral, after 120 min.

T1 sequence (P07768 1008-1827 limits assumed): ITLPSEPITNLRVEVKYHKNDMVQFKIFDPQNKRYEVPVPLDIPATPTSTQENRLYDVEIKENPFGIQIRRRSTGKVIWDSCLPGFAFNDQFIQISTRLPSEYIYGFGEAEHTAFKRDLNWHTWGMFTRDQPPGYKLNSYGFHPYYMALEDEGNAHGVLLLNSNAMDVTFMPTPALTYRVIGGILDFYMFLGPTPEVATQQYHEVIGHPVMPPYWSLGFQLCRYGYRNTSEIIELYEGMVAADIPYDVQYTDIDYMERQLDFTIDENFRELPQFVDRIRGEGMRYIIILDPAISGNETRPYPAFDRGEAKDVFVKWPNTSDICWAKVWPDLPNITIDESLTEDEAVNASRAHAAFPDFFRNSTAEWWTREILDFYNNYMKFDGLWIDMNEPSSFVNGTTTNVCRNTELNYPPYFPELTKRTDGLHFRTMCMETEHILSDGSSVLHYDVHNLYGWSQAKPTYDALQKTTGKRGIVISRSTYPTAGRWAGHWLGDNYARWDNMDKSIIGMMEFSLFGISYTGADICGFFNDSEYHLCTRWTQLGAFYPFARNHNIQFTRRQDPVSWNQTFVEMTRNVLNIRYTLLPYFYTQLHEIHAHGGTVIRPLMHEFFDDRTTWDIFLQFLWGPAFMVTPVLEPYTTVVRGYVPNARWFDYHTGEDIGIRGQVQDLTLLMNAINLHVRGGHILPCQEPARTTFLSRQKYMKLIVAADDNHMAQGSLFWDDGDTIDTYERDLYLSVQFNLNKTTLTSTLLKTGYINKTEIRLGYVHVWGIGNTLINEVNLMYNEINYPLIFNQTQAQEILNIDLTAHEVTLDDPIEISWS
T1 sequence (P07768 2-1007 partner limits assumed): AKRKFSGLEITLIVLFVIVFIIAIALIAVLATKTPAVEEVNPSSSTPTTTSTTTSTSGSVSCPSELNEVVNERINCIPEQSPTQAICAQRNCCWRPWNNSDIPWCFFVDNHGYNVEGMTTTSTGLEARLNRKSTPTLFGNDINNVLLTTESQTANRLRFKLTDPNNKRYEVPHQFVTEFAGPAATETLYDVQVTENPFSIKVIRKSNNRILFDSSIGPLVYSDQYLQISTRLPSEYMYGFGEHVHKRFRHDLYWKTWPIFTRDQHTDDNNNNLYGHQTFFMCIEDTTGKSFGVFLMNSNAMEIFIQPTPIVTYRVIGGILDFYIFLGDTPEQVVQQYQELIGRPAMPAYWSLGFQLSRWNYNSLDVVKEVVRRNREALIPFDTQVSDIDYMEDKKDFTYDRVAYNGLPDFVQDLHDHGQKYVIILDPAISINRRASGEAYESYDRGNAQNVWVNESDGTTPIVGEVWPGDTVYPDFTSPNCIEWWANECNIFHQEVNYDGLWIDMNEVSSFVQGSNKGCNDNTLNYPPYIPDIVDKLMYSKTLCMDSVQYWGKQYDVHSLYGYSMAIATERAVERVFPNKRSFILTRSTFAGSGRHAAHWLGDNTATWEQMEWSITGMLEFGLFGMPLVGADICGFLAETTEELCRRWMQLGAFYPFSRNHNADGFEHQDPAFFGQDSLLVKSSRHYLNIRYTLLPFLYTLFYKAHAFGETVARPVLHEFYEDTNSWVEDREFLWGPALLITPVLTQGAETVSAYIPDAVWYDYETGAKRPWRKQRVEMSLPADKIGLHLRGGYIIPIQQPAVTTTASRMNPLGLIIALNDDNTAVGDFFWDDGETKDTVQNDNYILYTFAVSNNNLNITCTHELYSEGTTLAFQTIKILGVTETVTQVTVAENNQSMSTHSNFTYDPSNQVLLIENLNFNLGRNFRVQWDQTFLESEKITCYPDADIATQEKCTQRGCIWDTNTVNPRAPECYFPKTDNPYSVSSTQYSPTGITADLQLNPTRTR

Compound	maltase-inhibiting action (in words) [1]	Maltase inhibition rate ([1]; 25 mg/dl)	Maltase inhibition rate ([1]; 50 mg/dl)	Maltase inhibition rate ([1]; 100 mg/dl)	Maltase inhibition rate ([1]; 200 mg/dl)	sucrase-inhibiting action (in words) [2]	inhibition at 250 µg/mL [2]	inhibition at 500 µg/mL [2]	inhibition at 1000 µg/mL [2]	inhibition at 2000 µg/mL [2]	Rise in blood sugar (rise in blood sugar; [3])	Rise in blood sugar (rise in blood sugar; [4])	Rise in blood sugar (rise in blood sugar; [5])	action to depress the rise in blood sugar due to sucrose loading (in words) (rise in blood sugar)	action to depress the rise in blood sugar for sucrose or starch loading (in words) (rise in blood sugar)	Rise in blood sugar (rise in blood sugar; dose 25 mg/kg oral, after 30 min.)	Rise in blood sugar (rise in blood sugar; dose 25 mg/kg oral, after 60 min.)	Rise in blood sugar (rise in blood sugar; dose 50 mg/kg oral, after 30 min.)	Rise in blood sugar (rise in blood sugar; dose 50 mg/kg oral, after 60 min.)	Rise in blood sugar (rise in blood sugar; dose 50 mg/kg oral, after 120 min.)
O=CC[C@@H](O)[C@@H](O)[C@H](O)CO [2-Deoxy-D-galactose, 2-deoxy-D-galactose]	strong sucrase-inhibiting action and maltase-inhibiting action	11.2%	13.4%	19.3%	32.8%	strong sucrase-inhibiting action	13.7%	15.5%	21.6%	34.8%	61.1 Δmg/dl	50.8 Δmg/dl	26.2 Δmg/dl	significantly depressed	effective action to depress the rise in blood sugar					
O=C[C@@H](O)[C@@H](O)[C@H](O)CO [D-Lyxose, D-lyxose]	inhibiting actions second to these				22.3%	inhibiting actions second to these				23.4%	62.7 Δmg/dl	57.0 Δmg/dl		significantly depressed	effective action to depress the rise in blood sugar					
O=C[C@H](O)[C@H](O)[C@H](O)CO [D-Ribose, D-ribose]	strong sucrase-inhibiting action and maltase-inhibiting action	13.5%	18.4%	33.3%	46.5%	strong sucrase-inhibiting action	13.7%	17.8%	34%	33.4%	61.2 Δmg/dl	48.5 Δmg/dl		significantly depressed	effective action to depress the rise in blood sugar					
O=C(CO)[C@H](O)[C@H](O)CO [D-Ribulose, D-ribulose]	inhibiting actions second to these				20.1%	inhibiting actions second to these				21.7%	65.6 Δmg/dl	56.3 Δmg/dl	28.1 Δmg/dl	significantly depressed	effective action to depress the rise in blood sugar					
O=C(CO)[C@@H](O)[C@@H](O)[C@H](O)CO [D-Tagatose, D-tagatose]	strong sucrase-inhibiting action and maltase-inhibiting action	12.5%	17.7%	30.3%	33.9%	strong sucrase-inhibiting action	8.9%	15.7%	30%	36.6%	60.7 Δmg/dl	44.4 Δmg/dl	26.3 Δmg/dl	significantly depressed	effective action to depress the rise in blood sugar					
O=C[C@H](O)[C@@H](O)[C@H](O)CO [D-Xylose, D-xylose]	strong sucrase-inhibiting action and maltase-inhibiting action	29.2%	36.4%	44.3%	53.1%	strong sucrase-inhibiting action	28.5%	35.5%	49.5%	59.8%	38.2 Δmg/dl	45.2 Δmg/dl	23.4 Δmg/dl	depressed in dependence on the dose	effective action to depress the rise in blood sugar	76.3 Δmg/dl	55.4 Δmg/dl	62.5 Δmg/dl	47.3 Δmg/dl	24.0 Δmg/dl
O=C(CO)[C@@H](O)[C@H](O)CO [D-Xylulose, D-xylulose]	inhibiting actions second to these				11.9%	inhibiting actions second to these				19.9%	67.3 Δmg/dl	59.7 Δmg/dl	27.5 Δmg/dl	significantly depressed	effective action to depress the rise in blood sugar					
OC[C@H]1O[C@@H](O[C@H]2[C@H](O)[C@H](O)C(O)O[C@@H]2CO)[C@@H](O)[C@@H](O)[C@@H]1O (stereo partly shown) [reference compound]					0.6%					0.9%										
OC[C@H]1O[C@@H](O[C@H]2[C@H](O)[C@H](O)[C@H](O[C@H]3[C@H](O)[C@H](O)C(O)O[C@@H]3CO)O[C@@H]2CO)[C@@H](O)[C@@H](O)[C@@H]1O (stereo partly shown) [reference compound]					1.3%					2%										
OC[C@H]1O[C@@H](O[C@H]2[C@H](O)[C@H](O)[C@H](O[C@H]3[C@H](O)[C@H](O)[C@H](O[C@H]4[C@H](O)[C@H](O)C(O)O[C@@H]4CO)O[C@@H]3CO)O[C@@H]2CO)[C@@H](O)[C@@H](O)[C@@H]1O (stereo partly shown) [reference compound]					0.7%					-0.3%										
OC[C@H]1O[C@@H](O[C@H]2[C@H](O)[C@H](O)[C@H](O[C@H]3[C@H](O)[C@H](O)[C@H](O[C@H]4[C@H](O)[C@H](O)[C@H](O[C@H]5[C@H](O)[C@H](O)C(O)O[C@@H]5CO)O[C@@H]4CO)O[C@@H]3CO)O[C@@H]2CO)[C@@H](O)[C@@H](O)[C@@H]1O (stereo partly shown) [reference compound]					3.5%					4%										
OC1OC[C@@H](O[C@@H]2OC[C@@H](O[C@@H]3OC[C@@H](O)[C@H](O)[C@H]3O)[C@H](O)[C@H]2O)[C@H](O)[C@H]1O (stereo partly shown) [reference compound]					3.6%					2.7%										
OC1OC[C@@H](O[C@@H]2OC[C@@H](O[C@@H]3OC[C@@H](O[C@@H]4OC[C@@H](O)[C@H](O)[C@H]4O)[C@H](O)[C@H]3O)[C@H](O)[C@H]2O)[C@H](O)[C@H]1O (stereo partly shown) [reference compound]					2.0%					3.5%										
OC1OC[C@@H](O[C@@H]2OC[C@@H](O[C@@H]3OC[C@@H](O[C@@H]4OC[C@@H](O[C@@H]5OC[C@@H](O)[C@H](O)[C@H]5O)[C@H](O)[C@H]4O)[C@H](O)[C@H]3O)[C@H](O)[C@H]2O)[C@H](O)[C@H]1O (stereo partly shown) [reference compound]					1.5%					-0.5%										
OC1OC[C@@H](O[C@@H]2OC[C@@H](O[C@@H]3OC[C@@H](O[C@@H]4OC[C@@H](O[C@@H]5OC[C@@H](O[C@@H]6OC[C@@H](O)[C@H](O)[C@H]6O)[C@H](O)[C@H]5O)[C@H](O)[C@H]4O)[C@H](O)[C@H]3O)[C@H](O)[C@H]2O)[C@H](O)[C@H]1O (stereo partly shown) [reference compound]					-5.1%					-7.9%										
